Earlier results on 34 compounds are cited in the PKSmart pharmacokinetics tables (Seal et al. 2025).

A word on the clearance: it is the volume of plasma or blood freed of the substance per unit of time. Usually Vd stands for the apparent volume that relates the amount in the body to the concentration in plasma or blood. What is called half-life is the time needed for the level to fall by half in the phase considered. For orientation: fraction unbound means the share of the substance not bound to proteins or other matrix.

A short description of this data set: not given per row; by the article one of three: Lombardo et al. 2013, J Clin Pharmacol 53:178, doi 10.1177/0091270012440282; 'New Drugs at FDA', novel drug approvals for 2021 and 2022 (the article's reference 43); Yap, Li, Chen 2006, J Mol Graph Model 24:383, doi 10.1016. Conditions: human; for clearance / Vd / half-life: in vivo; for fraction unbound: plasma.

As to `CN1CC[C@@]23c4c5ccc(O)c4OC2C(=O)CC[C@@H]3[C@@H]1C5` (some centres undefined), the clearance was 19.2 mL/min/kg.
`O=C(CCC(C(=O)O)N1CCN(C(CCC(=O)NCC(O)CO)C(=O)O)Cc2cccc(n2)CN(C(CCC(=O)NCC(O)CO)C(=O)O)CC1)NCC(O)CO` (centres undefined): the Vd was 0.22 L/kg, the clearance is 1.67 mL/min/kg, the half-life was 1.5 h and the fraction unbound is 0.98.
`CCCCN(CCCC)C[C@H](O)c1cc(Cl)cc2c1-c1ccc(Cl)cc1/C2=C/c1ccc(Cl)cc1`: the clearance was 3.57 mL/min/kg.
As to `CCN(CC)c1cc(C)n2ncnc2n1`, the clearance is 3.79 mL/min/kg.
Turning to `O=C1CC2(CCCC2)CC(=O)N1CCCCN1CCN(c2ncccn2)CC1`, the clearance is 28.3 mL/min/kg.
Regarding `CN1c2ccccc2[C@H](NCCCCCCC(=O)O)c2ccc(Cl)cc2S1(=O)=O`, the clearance is 3.43 mL/min/kg.
Take `C=CC(=O)N1CC[C@H](n2nc(C#Cc3cc(OC)cc(OC)c3)c3c(N)ncnc32)C1`: the Vd is 1.1 L/kg, the clearance is 5.56 mL/min/kg, the half-life is 2.9 h and the fraction unbound is 0.05.
For the compound `O=C(Cn1ccnc1[N+](=O)[O-])NCCO`, the clearance was 1.73 mL/min/kg.
Regarding `C[C@]12C=CC(=O)N[C@@H]1CC[C@@H]1[C@H]2CC[C@]2(C)C(C(=O)Nc3cc(C(F)(F)F)ccc3C(F)(F)F)CC[C@@H]12` (some centres undefined), the clearance is 0.14 mL/min/kg.
Turning to `C[C@]1(Cn2ccnn2)C(C(=O)O)N2C(=O)C[C@@H]2S1(=O)=O` (some centres undefined), the clearance was 2.91 mL/min/kg.
In the case of `COc1cc2nccc(Oc3ccc(NC(=O)Nc4cc(C)on4)c(Cl)c3)c2cc1OC`, the Vd is 2.05 L/kg, the clearance was 0.21 mL/min/kg, the half-life is 111 h and the fraction unbound is 0.01.
Turning to `CC(NC(C)(C)C)C(=O)c1cccc(Cl)c1` (centres undefined), the clearance was 36 mL/min/kg.
For the compound `CCOC(=O)C(Cc1ccc(F)cc1)NC(=O)C(N)Cc1ccc(N(CCCl)CCCl)cc1` (centres undefined), the volume of distribution (Vd) is 0.58 L/kg, the clearance is 192 mL/min/kg and the half-life was 0.04 h.
On to `NC(C(=O)NC1C(=O)N2C(C(=O)O)=C(Cl)CS[C@H]12)c1ccccc1` (some centres undefined), for which the clearance was 6.1 mL/min/kg.
As to `CCN1CCN(c2ccc(Nc3cc(N(C)C(=O)Nc4c(Cl)c(OC)cc(OC)c4Cl)ncn3)cc2)CC1`, the distribution volume (Vd) is 26.7 L/kg, the clearance is 9.19 mL/min/kg, the half-life is 33.5 h and the free fraction (fraction unbound) was 0.03.
As for `CC(C)NC(=O)COc1cccc(-c2nc(Nc3ccc4[nH]ncc4c3)c3ccccc3n2)c1`, the distribution volume (Vd) was 3.07 L/kg, the clearance is 2.73 mL/min/kg and the half-life was 19 h.
On to `O=c1[nH]c2ccccc2n1C1CCN(CCCC(c2ccc(F)cc2)c2ccc(F)cc2)CC1`, for which the clearance is 4.1 mL/min/kg.
Consider `O[C@@H](c1cc(C(F)(F)F)nc2c(C(F)(F)F)cccc12)[C@@H]1CCCCN1`, for which the clearance was 0.41 mL/min/kg.
Regarding `CN1CCC(COc2cnc(-c3cccc(Cn4nc(-c5cccc(C#N)c5)ccc4=O)c3)nc2)CC1`, the free fraction (fraction unbound) is 0.02.
For `O=C(O)CN1C(=O)C(NC(CCc2ccccc2)C(=O)O)CCc2ccccc21` (centres undefined), the clearance was 0.35 mL/min/kg.
Turning to `Cc1nc2ccc(CN(C)c3ccc(C(=O)NC(CCC(=O)O)C(=O)O)s3)cc2c(=O)[nH]1` (centres undefined), the clearance was 0.59 mL/min/kg.
`CON=C(C(=O)NC1C(=O)N2C(C(=O)O)=C(C)CS[C@@H]12)c1csc(N)n1` (some centres undefined): the clearance is 2 mL/min/kg.
As for `[2H]C([2H])([2H])NC(=O)c1nnc(NC(=O)C2CC2)cc1Nc1cccc(-c2ncn(C)n2)c1OC`, the Vd was 2.33 L/kg, the clearance is 0.68 mL/min/kg, the half-life is 10 h and the free fraction (fraction unbound) is 0.14.
Consider `CS(=O)(=O)c1ccc(Oc2cc(F)cc(C#N)c2)c2c1[C@H](O)[C@H](F)[C@@H]2F`, for which the Vd is 2.17 L/kg, the clearance was 2.03 mL/min/kg, the half-life is 14 h and the fraction unbound is 0.55.
Take `C[C@H](CCc1ccccc1)NC[C@@H](O)c1ccc(O)c(C(N)=O)c1`: the clearance is 28.1 mL/min/kg.
`O=C(c1ccc(NS(=O)(=O)c2cccc3cccnc23)cc1)N1CCN(CC2CC2)CC1`: the volume of distribution (Vd) is 0.71 L/kg, the clearance is 3.47 mL/min/kg, the half-life was 4 h and the fraction unbound was 0.02.
Turning to `CCCCCc1cc(O)c2c(c1)OC(C)(C)[C@H]1CCC(C)=C[C@H]21`, the clearance is 3.33 mL/min/kg.
Turning to `CN(C/C=C/C#CC(C)(C)C)Cc1cccc2ccccc12`, the clearance is 17.9 mL/min/kg.
Regarding `CCCCCOC(=O)Nc1nc(=O)n([C@@H]2O[C@H](C)[C@@H](O)[C@H]2O)cc1F`, the clearance was 59.7 mL/min/kg.
Regarding `CNCC[C@H](Oc1ccc(C(F)(F)F)cc1)c1ccccc1`, the clearance was 9.6 mL/min/kg.
`C=CCN1CCc2nc(N)sc2CC1`: the clearance was 7.38 mL/min/kg.
`CCCC(NC(C)C(=O)N1C(C(=O)O)C[C@@H]2CCCC[C@H]21)C(=O)OCC` (some centres undefined): the clearance is 6.19 mL/min/kg.
In the case of `NC(=O)CN1CCCC1=O`, the clearance is 1.3 mL/min/kg.
As to `CC1=C(/C=C/C(C)=C/C=C/C(C)=C/C(=O)Nc2ccc(O)cc2)C(C)(C)CCC1`, the clearance was 23.5 mL/min/kg.
